From PubChem BioAssay (NCI)
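Values below derive from 48-hour exposures of cells grown in 96-well plates, with endpoints linearly interpolated between the two concentrations bracketing the appropriate inhibition level. TGI is the concentration that stops growth completely.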

Key:
Experiment in all cases: growth of human tumour cells (NCI), 48 h
A498 renal = test system: A498 renal
ACHN renal = test system: ACHN renal
LOX IMVI melanoma = test system: LOX IMVI melanoma
MCF7 breast = test system: MCF7 breast
NCI-H226 lung = test system: NCI-H226 lung
NCI/ADR-RES ovarian = test system: NCI/ADR-RES ovarian
SF-268 CNS = test system: SF-268 CNS
SR leukemia = test system: SR leukemia
U251 CNS = test system: U251 CNS
UO-31 renal = test system: UO-31 renal
CCRF-CEM leukemia = test system: CCRF-CEM leukemia
COLO 205 colon = test system: COLO 205 colon
MALME-3M melanoma = test system: MALME-3M melanoma
SK-OV-3 ovarian = test system: SK-OV-3 ovarian
SN12C renal = test system: SN12C renal

| SMILES | TGI (A498 renal) [µM] | TGI (ACHN renal) [µM] | TGI (LOX IMVI melanoma) [µM] | TGI (MCF7 breast) [µM] | TGI (NCI-H226 lung) [µM] | TGI (NCI/ADR-RES ovarian) [µM] | TGI (SF-268 CNS) [µM] | TGI (SR leukemia) [µM] | TGI (U251 CNS) [µM] | TGI (UO-31 renal) [µM] | TGI (CCRF-CEM leukemia) [µM] | TGI (COLO 205 colon) [µM] | TGI (MALME-3M melanoma) [µM] | TGI (SK-OV-3 ovarian) [µM] | TGI (SN12C renal) [µM] |
| --- | --- | --- | --- | --- | --- | --- | --- | --- | --- | --- | --- | --- | --- | --- | --- |
| CC1=NN(c2cccc(Cl)c2)C2(SCC(=O)N2c2nc3ccccc3s2)/C1=C\c1cccs1 (centres undefined) | 59 | > 100 | 66.5 | > 100 | 50.7 | 48.9 | 44 | 30.1 | 41.6 | 60.2 | – | – | – | – | – |
| Cc1cccc(CP(Cc2cccc(C)c2)CC2(Cp3c4ccccc4c4ccccc43)COC2)c1 | > 100 | > 100 | > 100 | > 100 | > 100 | > 100 | > 100 | > 94.4 | > 100 | > 100 | > 100 | 2.96 | > 83.3 | > 100 | > 31.6 |
| C=CCC1(OC(C)=O)C2OC(=O)C1(O)OCC2O (centres undefined) | > 100 | > 100 | > 100 | > 100 | > 100 | > 100 | > 100 | > 100 | > 100 | > 100 | > 100 | > 100 | > 100 | > 100 | > 100 |
| CCCN(CCCc1ccccc1)CCc1ccc2[nH]c(=S)[nH]c2c1 | > 100 | > 100 | > 100 | > 100 | > 100 | > 100 | > 100 | 25.1 | > 100 | 51.4 | – | 42.6 | 25.5 | > 100 | > 100 |
| CCOC(=O)c1cn2c(n1)sc1c(Cl)c(Cl)ccc12 | > 100 | > 100 | > 100 | > 100 | 51.6 | 97.9 | > 54.9 | > 55.2 | > 100 | > 100 | > 100 | 19.1 | 8.92 | > 100 | 39 |
| O=C(CCCN1CCC2(CC1)CC(=O)N(N1CCCCCC1)C2=O)c1ccccc1 | > 100 | > 100 | > 100 | > 100 | > 100 | > 100 | > 100 | > 100 | > 100 | > 100 | > 100 | > 100 | > 100 | > 100 | > 100 |
| COc1ccc(-n2cnc3c2NC(C)(C)N=C3C(N)=O)c(OC)c1 | > 100 | > 100 | > 100 | > 100 | > 100 | > 100 | > 100 | > 100 | > 100 | – | > 100 | > 100 | > 100 | > 100 | > 100 |
| COc1ccc(C(=O)c2sc(Nc3ccc(Cl)cc3)nc2N)cc1 | > 75 | > 87.7 | > 100 | > 100 | > 100 | > 69.5 | 43.3 | > 45.2 | > 55.5 | 97.7 | 58.1 | > 100 | > 59.4 | 27.2 | > 62.8 |
| CC(=O)OCC1OC(c2nc3ccccc3s2)=CC(OC(C)=O)C1OC(C)=O (centres undefined) | > 100 | > 100 | > 100 | > 100 | > 100 | > 100 | > 100 | > 100 | > 100 | > 100 | > 100 | > 100 | > 100 | – | > 100 |
| CC[C@@H]1CC[C@@H]2[C@H](CC[C@]3(C)[C@@H](OS(=O)(=O)c4ccc(C)cc4)CC[C@@H]23)[C@H]1COS(=O)(=O)c1ccc(C)cc1 | > 100 | > 100 | > 100 | > 100 | > 100 | > 100 | > 100 | > 100 | > 100 | > 100 | > 100 | – | > 100 | – | > 100 |
| CC(C)(C)c1cc(C2=NNC(c3ccccc3)C2)cc(C(C)(C)C)c1O (centres undefined) | 29.7 | 29.8 | 29.6 | 27.7 | 32.8 | 38.7 | 36 | 27.5 | 28.8 | 30.3 | – | 31.7 | 34.7 | 38.2 | 32.7 |
| O=C(CCc1ccc(O)c(O)c1)NCCc1cc(O)cc(O)c1 | > 100 | > 100 | > 100 | > 100 | > 100 | > 100 | > 100 | > 100 | > 100 | > 100 | > 100 | > 100 | – | > 100 | > 100 |
| COc1ccc(CC(=O)N2CCC3(C)CC(=O)CC=C23)cc1OC (centres undefined) | > 100 | > 100 | > 100 | > 100 | > 100 | > 100 | > 100 | > 100 | > 100 | > 100 | – | > 100 | > 100 | > 100 | > 100 |
| CN(C)CCCNc1ccc([N+](=O)[O-])c2nc3ccccc3c(N)c12 | 6.92 | 1.61 | 1.63 | > 10 | > 10 | 1.84 | 4.92 | > 10 | 2.12 | 2.97 | 2.99 | – | > 10 | 0.987 | 7.37 |
| C=CCc1cccc2cc(C(=O)Nc3ccccc3)c(=N)oc12 | 50.3 | > 100 | > 100 | > 100 | > 100 | > 100 | > 100 | > 100 | > 100 | – | > 100 | > 100 | 58.7 | > 100 | > 100 |
| Cn1c2ccc3cc2c(=S)c2cc(ccc21)OCCOCCOCCOCCOCCO3 | > 10 | > 10 | > 10 | > 10 | > 10 | > 10 | > 10 | > 10 | > 10 | – | > 10 | > 10 | > 10 | > 10 | > 10 |
